From US10080365B2, “Use of strobilurin type compounds for combating phytopathogenic fungi resistant to Qo inhibitors” (BASF SE, priority 2011, dated 2018) come the findings set out here.

pIC50: −log10 of the molar value. Where two headings read alike, the source gives them in different places.

Test [1] has as its system Septoria tritici (Qo-inhibitor sensitive, wild-type). Description: Microtiter test, Septoria tritici Qo-inhibitor sensitive wild-type (Use Example 1). Particulars: turbidity at 620 nm, read-out: Sensitive Septoria tritici isolate (wild type) (S-IC50). It counts as cell-based. The method, then:
(§1) The active substances were formulated separately as a stock solution in dimethyl sulfoxide (DMSO) at a concentration of 10 000 ppm.
(§2) Activity against the Septoria blotch pathogen caused by Septoria tritici in the microtiter test
(§3) Fungal strains used: • a) Septoria tritici (Qo-inhibitor sensitive, wild-type) • b) Septoria tritici (Qo-inhibitor-resistant, G143A mutant)
(§4) 100 ml 2% Malt extract in water at pH6.8 were inoculated with microspores from 2 week old cultures grown on 2% malt extract+2% agar in Petri dishes and incubated for 3 days on a rotary shaker at 24° C. und 150 rpm. The culture was harvested, glycerol was added (15% (v/v) and kept frozen at −20° C. in aliquots of 1 ml.
(§5) 1 ml stock suspension was thawed and suspended into 800 ml of 2% malt extract in water at pH 6.8. Compounds were diluted from stock solution in (dimethylsulfoxide) DMSO in 10 steps. The compound solutions were diluted 1/5 with sterile deionized water before use. 5 μl of the compound solutions were transferred into empty microplates. The plates were then filled with 195 μl of the microspore suspension of each strain.
(§6) The antifungal activity was determined by measuring the turbidity of a culture in 96-well microplates in the presence of test compounds. Fungal growth was measured by recording the optical density at 620 nm every 15 h for 150 h. The relative antifungal activity was calculated by comparison of the effect of the test compounds with the effect of a DMSO control and a standard fungicide.
(§7) IC50-values (concentration of test compound resulting in 50% inhibition of fungal growth) were calculated from the resulting dose-response for each compound and strain. The initial concentration of the test compounds and the 10 steps of dilution (1:4 each) allowed IC50-values from 0.001 to 100 μmol/l (μM) to be assessed.

The subject of test [2] is Septoria tritici (Qo-inhibitor-resistant, G143A mutant). Description: Microtiter test, Septoria tritici Qo-inhibitor-resistant G143A mutant (Use Example 1). Type of test: cell-based. Particulars: for pIC50: read-out: Resistant Septoria tritici isolate (G143A mutation) (R-IC50); for Resistance factor RF = R-IC50/S-IC50: ratio of IC50 for G143A resistant isolate to IC50 for wild-type sensitive isolate. Here is the method: as §1, §2, §3, §4, §5, §6, §7

The mark [3] stands for this setting: microtiter test, Qo-inhibitor-resistant G143A mutant, turbidity at 620 nm.

Turning to `CCON=C(C)c1cc(C)c(OCc2ccccc2-n2nnn(CC)c2=O)cc1C` [Compound I-255], the figures for the pIC50 in test [1] and in test [2] (setting [3]) were 4.72 and 4.38, respectively. Moreover, in test [2], the “Resistance factor RF = R-IC50/S-IC50” value worked out at 2.2.
Take `CCC(=NOC)c1ccc(OCc2ccccc2-n2nnn(CC)c2=O)c(C)c1` [Compound I-256]: the pIC50 in test [1] was 4.68; in test [2] (setting [3]), 4.62. Besides, in test [2], the “Resistance factor RF = R-IC50/S-IC50” value amounted to 1.1.
As to `CCn1nnn(-c2ccccc2COc2cc(C)c(C(C)=NOC)cc2C)c1=O` [Compound I-257], the results for the pIC50 in test [1] and in test [2] (setting [3]) were 4.82 and 4.17, respectively. In test [2], the “Resistance factor RF = R-IC50/S-IC50” value turned out to be 4.5.
Regarding `Cc1ccc(-n2cc(C)c(OCc3ccccc3-n3nnn(C)c3=O)n2)cc1` [Compound I-260], the pIC50 in test [1] was 5.64; in test [2] (setting [3]), 5.48. In test [2], the “Resistance factor RF = R-IC50/S-IC50” value is on record as 1.4.
Regarding `CCc1ccc(-n2cc(C)c(OCc3ccccc3-n3nnn(C)c3=O)n2)cc1` [Compound I-261], the pIC50 was 5.54 in test [1] and 5.30 in test [2] (setting [3]). In addition, the “Resistance factor RF = R-IC50/S-IC50” value in test [2] is 1.6.
In the same order, the values of `Cc1ccc(-n2cc(C)c(OCc3ccccc3-n3nnn(C)c3=O)n2)cc1C` [Compound I-262] are 6.00, 5.80 and 1.6.
`Cc1ccc(-n2cc(C)c(OCc3ccccc3-n3nnn(C)c3=O)n2)c(C)c1` [Compound I-265]: the pIC50 in test [1] is 5.42; in test [2] (setting [3]), 5.40. Also, the “Resistance factor RF = R-IC50/S-IC50” value in test [2] was 1.1.
Regarding `Cc1cc(-c2cnco2)c(C)cc1OCc1ccccc1-n1nnn(C)c1=O` [Compound I-267], the values for the pIC50 in test [1] and in test [2] (setting [3]) were 5.54 and 5.30, respectively. The “Resistance factor RF = R-IC50/S-IC50” value in test [2] is 1.7.
Take `Cc1cc(-c2c(C)noc2C)c(C)cc1OCc1ccccc1-n1nnn(C)c1=O` [Compound I-269]: the pIC50 in test [1] was 5.10; in test [2] (setting [3]) it was 4.13. Besides, in test [2], the “Resistance factor RF = R-IC50/S-IC50” value is recorded as 10.
Turning to `Cc1ncc(-c2cc(C)c(OCc3ccccc3-n3nnn(C)c3=O)cc2C)o1` [Compound I-270], the values for the negative logarithm of the IC50 (pIC50) in test [1] and in test [2] (setting [3]) were 5.22 and 4.24, respectively. In addition, in test [2], the “Resistance factor RF = R-IC50/S-IC50” value came out at 10.
Regarding `Cc1cc(-c2cnoc2)c(C)cc1OCc1ccccc1-n1nnn(C)c1=O` [Compound I-271], the values for the pIC50 in test [1] and in test [2] (setting [3]) were 5.72 and 5.15, respectively. Moreover, in test [2], the “Resistance factor RF = R-IC50/S-IC50” value was 3.9.
For the molecule `Cc1c(OCc2ccccc2-n2nnn(C)c2=O)nn2c(C3CC3)cc(C3CC3)nc12` [Compound I-273], the values for the pIC50 in test [1] and in test [2] (setting [3]) were 5.30 and 4.66, respectively. Also, the “Resistance factor RF = R-IC50/S-IC50” value in test [2] is recorded as 4.
In the same order, the values of `CC(=NOCc1ccccc1-n1nnn(C)c1=O)C(=O)c1ccc(C)c(C)c1` [Compound I-274] are 5.05, 4.72 and 2.0.
Take `CCC(=CCOc1ccn(-c2ccc(Cl)cc2)n1)C(=NOC)C(=O)NC` [Compound I-287]: the results for the pIC50 in test [1] and in test [2] (setting [3]) were 5.82 and 4.74, respectively. In test [2], the “Resistance factor RF = R-IC50/S-IC50” value was determined as 12.
On the same counts, the results for `CNC(=O)C(=NOC)C(C)=CCOc1ncn(-c2ccc(Cl)cc2)n1` [Compound I-288] are 5.46, 4.55 and 8.0.
As to `CON=C(C(=O)OC)C(C)=CCOc1ncn(-c2ccc(Cl)c(Cl)c2)n1` [Compound I-291], the pIC50 in test [1] was 6.00; in test [2] (setting [3]) it was 4.74. The “Resistance factor RF = R-IC50/S-IC50” value in test [2] turned out to be 18.0.
In the same order, the values of `CON=C(C(=O)OC)C(C)=CCOc1ncn(-c2ccc(Br)cc2)n1` [Compound I-292] are 5.10, 4.48 and 4.2.
In the same order, the values of `CON=C(C(=O)OC)C(C)=CCOc1ncn(-c2cc(C(F)(F)F)ccc2Cl)n1` [Compound I-298] are 5.44, 4.51 and 8.6.
Consider `CON=C(C(=O)OC)C(C)=CCOc1ncn(-c2ccc(Cl)cc2Cl)n1` [Compound I-303], for which the pIC50 in test [1] was 6.57; in test [2] (setting [3]), 5.34. In test [2], the “Resistance factor RF = R-IC50/S-IC50” value came to 17.0.
Consider `CCc1ccc(-n2cnc(OCC=C(C)C(=NOC)C(=O)OC)n2)cc1` [Compound I-304], for which the pIC50 was 6.28 in test [1] and 5.04 in test [2] (setting [3]). The “Resistance factor RF = R-IC50/S-IC50” value in test [2] came to 17.2.
As for `CNC(=O)C(=NOC)C(C)=CCOc1ncn(-c2ccc(Cl)cc2Cl)n1` [Compound I-305], the pIC50 in test [1] was 5.03; in test [2] (setting [3]) it was 4.49. Further, the “Resistance factor RF = R-IC50/S-IC50” value in test [2] amounted to 3.4.
As to `CON=C(C(=O)OC)C(C)=CCOc1ccn(-c2cc(Cl)ccc2C)n1` [Compound I-307], the figures for the pIC50 in test [1] and in test [2] (setting [3]) were 4.72 and 4.17, respectively. For the same molecule, in test [2], the “Resistance factor RF = R-IC50/S-IC50” value was determined as 3.5.
As for `CON=C(C(=O)OC)C(C)=CCOc1ncn(-c2ccc(C)c(Cl)c2)n1` [Compound I-310], the pIC50 is 6.41 in test [1] and 4.96 in test [2] (setting [3]). For the same molecule, the “Resistance factor RF = R-IC50/S-IC50” value in test [2] is listed as 28.2.
In the case of `CON=C(C(=O)OC)C(C)=CCOc1ncn(-c2ccccc2C)n1` [Compound I-319], in test [1], the negative logarithm of the IC50 (pIC50) is 4.77. Also, the “Resistance factor RF = R-IC50/S-IC50” value in test [2] is 6.0.
On to `CON=C(C(=O)OC)C(C)=CCOc1ncn(-c2cc(C)ccc2C)n1` [Compound I-324], for which the pIC50 in test [1] is 5.72; in test [2] (setting [3]), 4.42. For the same molecule, the “Resistance factor RF = R-IC50/S-IC50” value in test [2] was 20.0.
Take `CON=C(C(=O)OC)C(C)=CCOc1ncn(-c2ccc(C(F)(F)F)cc2Cl)n1` [Compound I-326]: the negative-log IC50 (pIC50) in test [1] was 5.92; in test [2] (setting [3]), 4.74. Besides, the “Resistance factor RF = R-IC50/S-IC50” value in test [2] is on record as 15.0.
With `CON=C(C(=O)OC)C(C)=CCOc1ncn(-c2cc(Cl)cc(Cl)c2)n1` [Compound I-331], the figures for the pIC50 in test [1] and in test [2] (setting [3]) were 5.74 and 4.60, respectively. Further, in test [2], the “Resistance factor RF = R-IC50/S-IC50” value was determined as 13.9.
In the case of `CNC(=O)/C(=N/OC)c1ccccc1COc1cc(C)ccc1C` [Dimoxystrobin, reference compound], the pIC50 in test [1] was 5.15; in test [2] (setting [3]) it was less than 4.00.
For the molecule `CO/C=C(/C(=O)OC)c1ccccc1CO/N=C(C)/C=C/c1ccc(Cl)cc1` [Enestroburin, reference compound], the negative logarithm of the IC50 (pIC50) in test [1] is 5.35; in test [2] (setting [3]), less than 4.00.
`CO/N=C(/C(=O)OC)c1ccccc1COc1ccccc1C` [Kresoximmethyl]: the pIC50 in test [1] (Zymoseptoria tritici) is 6.12; in test [2] (Zymoseptoria tritici) it was less than 4.00.
Consider `CNC(=O)/C(=N/OC)c1ccccc1Oc1ccccc1` [Metominostrobin, reference compound], for which the pIC50 in test [1] (Zymoseptoria tritici) and in test [2] (Zymoseptoria tritici) was less than 4.00 throughout.
Regarding `CNC(=O)/C(=N/OC)c1ccccc1CO/N=C(C)/C(=N/OC)C(/C)=N/OC` [Orysastrobin, reference compound], the pIC50 is 4.57 in test [1] and less than 4.00 in test [2] (setting [3]).
For the molecule `CO/C=C(/C(=O)OC)c1ccccc1COc1cccc(C(F)(F)F)n1` [Picoxystrobin, reference compound], the pIC50 is 5.64 in test [1] and less than 4.00 in test [2] (setting [3]).
In the case of `COC(=O)N(OC)c1ccccc1COc1c(C)c(-c2ccccc2)nn1C` [Pyrametostrobin, reference compound], the pIC50 in test [1] and in test [2] (setting [3]) was less than 4.00 each time.
Regarding `CO/C=C(/C(=O)OC)c1ccccc1COc1cc(-c2ccc(Cl)cc2)nn1C` [Pyraoxystrobin, reference compound], the pIC50 in test [1] was 5.80; in test [2] (setting [3]), less than 4.00.
